What was measured:
NS3 [1] = biological target: T1, NS3 (Hepatitis C virus genotype 4a, UniProt O39929, A1087S/A1113S/A1121T/A1128S/I1140V/I1160T/I1179L/R1118K/R1176A/S1127A); test: Binding and competition assay (fluorescence anisotropy, displacement of FITC-NS4A from NS3); design: species or system HCV genotype 4a; conditions: for binding affinity (in words): fluorescence anisotropy competition with FITC-NS4A
T1 construct: NS3 protease domain 1-181 aa+N-terminal T7 tag and C-terminal His tag; T7 tag (N); made in house; host or cells: E. coli Rosette (DE3) pLysS, vector pET-3a
T1 sequence (O39929 1027-1207 A1087S/A1113S/R1118K/A1121T/S1127A/A1128S/I1140V/I1160T/R1176A/I1179L): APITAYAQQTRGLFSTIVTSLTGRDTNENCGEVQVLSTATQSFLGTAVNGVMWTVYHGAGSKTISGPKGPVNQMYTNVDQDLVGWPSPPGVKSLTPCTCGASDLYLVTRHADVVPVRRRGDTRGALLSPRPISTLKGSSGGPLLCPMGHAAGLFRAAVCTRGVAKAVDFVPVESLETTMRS
Description: Binding buffer (20 mM HEPES, 10 mM DTT, 200 mM NaCl, pH 7.6), a mixture of NS3 (1.8 μM) and FITC-NS4A ([…]) at the calculated affinity constant concentration were placed in a 96-well plate as binding test solution. A serial dilution of MOC compounds (dissolved in 1.5% DMSO in binding buffer) (1/2 dilution starting from 150 μM to 0.292 μM) was mixed gently with the binding text solution for 60 minutes in the dark. The dissociation constant was calculated according to the recommended equation embedded in GraphPad Prism v8.
The binding affinity test was performed using fluorescence anisotropy technique. In this test, maximum fluorescence was first determined at optimal ratio of NS3 (1.8 μM) and FITC-NS4A (0.1 μM). Compounds that compete with NS4A should be able to decrease the fluorescence of this mixture because they prevent the binding to occur and it should be concentration-dependent. […] The reproducibility was checked using another batch of the express NS3 protein following the same procedure and the value was calculated=7.815±1.014 μM. […] Therefore, compound MOC-23 was tested for its ability to inhibit the NS3 enzyme.

NS3 [2] = biological target: T1, NS3; test: Enzyme inhibition assay (SensoLyte-520 HCV protease assay kit, FRET peptide); type: biochemical, HCV genotype 4a; conditions: MOC-23 at 6.3 μM, NS3 4.0 μM, 5-FAM/QXL520 FRET peptide
Description: The assay was performed using SensoLyte-520® HCV protease assay kit Fluorometric® (Anaspec, Fremont, Calif., USA) according to a modified procedure to suit the purpose of determination of allosteric inhibition. NS3 (4.0 μM) was mixed with MOC-23 (6.3 μM) for 15 minutes. Afterwards, 5-FAM/QXL™520 fluorescence resonance energy transfer (FRET) peptide was added as instructed by the assay kit manual. The sequence of this FRET peptide (5-FAM-SLGRKIQIQ) is derived from the cleavage site of NS4A/NS4B. In the FRET peptide, the fluorescence of 5-FAM is quenched by QXL™520. Upon cleavage into two separate fragments by HCV NS3/4A protease, the fluorescence of 5-FAM is recovered, and can be monitored at 490 nm/520 nm (excitation/emission). Controls included buffer, compound, compound+NS3, NS3+NS4A and FRET peptide separately. All test wells and controls were repeated in triplicates at the same 96-well plate.

Row | SMILES | Kd (NS3 [1]; dissociation constant (reproducibility check), another batch of the expressed NS3 protein, same procedure) [µM] | Kd (NS3 [1]; dissociation constant Kd (competition with FITC-NS4A), fluorescence anisotropy, NS3 1.8 μM, FITC-NS4A 0.1 μM, first batch of NS3) [µM] | binding affinity (in words) (NS3 [1]) | inhibition of NS3 proteolytic activity (NS3 [2])
1 | CCCCCNC(=O)c1ncc(C(=O)NCCCCNC(=N)N)[nH]1 [MOC-23, N^5-(4-guanidinobutyl)-N^2-(n-pentyl)-1H-imidazole-2,5-dicarboxamide] | 7.81 ± 1.01 | 6.3 ± 0.3 | highest affinity | abolished any proteolytic activity
2 | CCCCCCNC(=O)c1ncc(C(=O)NCCCCNC(=N)N)[nH]1 [MOC-24, N^5-(4-guanidinobutyl)-N^2-(n-hexyl)-1H-imidazole-2,5-dicarboxamide] | – | – | binding affinity at similar level | –
